Laboratory results: PubChem BioAssay AID1259408 (Genetic Toxicology Data Bank (GENE-TOX), 2018)
The source made the active and inactive calls. How the calls were made is not given here.

Test system: GENE-TOX genotoxicity assays, various organisms and cells
Assay: GENE-TOX mutagenicity studies
Conditions: for call: Assay Type: In vivo carcinogenicity studies
Description: GENE-TOX provides genetic toxicology (mutagenicity) test data from expert peer review of open scientific literature for more than 3,000 chemicals from the United States Environmental Protection Agency (EPA). GENE-TOX was established to select assay systems for evaluation, review data in the scientific literature, and recommend proper testing protocols and evaluation procedures for these systems.
GENE-TOX covers the years 1991 - 1998. It is no longer updated.
This is an archive assay for GENE-TOX mutagenicity studies.

[1] = Species/Cell Type: Salmonella typhimurium (one or more of the five standard strains: TA98, TA100, TA1535, TA1537, and TA1538), Assay Type: Histidine reverse gene mutation, Ames assay, Assay Code: SAL+, Evaluation Type: Evaluation A (Pre-1980)

SMILES: CCOS(C)(=O)=O
- mutagenic call (Species/Cell Type: Arabidopsis species, Assay Type: Gene mutation, Assay Code: ARM+D, Dose Response: With dose response, Evaluation Type: Evaluation A (Pre-1980)): active; positive
- mutagenic call (Species/Cell Type: Aspergillus nidulans, Assay Type: Forward gene mutation, Assay Code: ASF+, Evaluation Type: Evaluation A (Pre-1980)): active; positive
- mutagenic call (Species/Cell Type: Aspergillus nidulans, Assay Type: Reverse gene mutation, Assay Code: ASR+, Evaluation Type: Evaluation A (Pre-1980)): active; positive
- mutagenic call (Species/Cell Type: Chinese hamster lung (V79) cells, Assay Type: Forward gene mutation at the HPRT or ouabain locus, Assay Code: V79+, Evaluation Type: Evaluation A (Pre-1980)): active; positive
- mutagenic call (Species/Cell Type: Chinese hamster ovary (CHO) cells, Assay Type: Forward gene mutation at the HPRT locus, Assay Code: CHO+D, Dose Response: With dose response, Evaluation Type: Evaluation A (Pre-1980)): active; positive
- mutagenic call (Species/Cell Type: Drosophila melanogaster, Assay Type: Sex-linked recessive lethal gene mutation, Assay Code: SRL+, Evaluation Type: Evaluation A (Pre-1980)): active; positive
- mutagenic call (Species/Cell Type: Drosophila melanogaster, Sex: Male, Assay Type: Heritable translocation test, chromosome aberrations, Assay Code: DHT+, Evaluation Type: Evaluation A (Pre-1980)): active; positive
- mutagenic call (Species/Cell Type: Escherichia coli WP2, Assay Type: Tryptophan reverse gene mutation, Assay Code: WP2+, Evaluation Type: Evaluation A (Pre-1980)): active; positive
- mutagenic call (Species/Cell Type: Escherichia coli WP2 UVRA, Assay Type: Tryptophan reverse gene mutation, Assay Code: WPU+, Evaluation Type: Evaluation A (Pre-1980)): active; positive
- mutagenic call (Species/Cell Type: Escherichia coli polA (W3119 vs P3478), Assay Type: Rec-assay, DNA effects (bacterial DNA repair), Assay Code: RE1+, Evaluation Type: Evaluation A (Pre-1980)): active; positive
- mutagenic call (Species/Cell Type: F1 mouse, Sex: Male, Assay Type: Sperm morphology, Assay Code: SPF+, Evaluation Type: Evaluation A (Pre-1980)): active; positive
- mutagenic call (Species/Cell Type: Glycine max (soybean), Assay Type: Gene mutation, Assay Code: GLM+, Evaluation Type: Evaluation A (Pre-1980)): active; positive
- mutagenic call (Species/Cell Type: Hordeum vulgare (barley), Assay Type: Chromosome aberrations, Assay Code: HOC+D, Dose Response: With dose response, Evaluation Type: Evaluation A (Pre-1980)): active; positive
- mutagenic call (Species/Cell Type: Hordeum vulgare (barley), Assay Type: Gene mutation, Assay Code: HOM+D, Dose Response: With dose response, Evaluation Type: Evaluation A (Pre-1980)): active; positive
- mutagenic call (Species/Cell Type: Human diploid fibroblasts, Assay Type: Unscheduled DNA synthesis (UDS) in vitro, DNA effects, Assay Code: UDH+D, Dose Response: With dose response, Evaluation Type: Evaluation A (Pre-1980)): active; positive
- mutagenic call (Species/Cell Type: Human lymphocytes, Assay Type: Micronucleus test in vitro, chromosome aberrations, Assay Code: MN7+, Evaluation Type: Evaluation A (Pre-1980)): active; positive
- mutagenic call (Species/Cell Type: Human lymphocytes, Assay Type: Sister-chromatid exchange (SCE) in vitro, Assay Code: SCL+, Evaluation Type: Evaluation A (Pre-1980)): active; positive
- mutagenic call (Species/Cell Type: Human, Assay Type: Sister-chromatid exchange (SCE) in vitro, Assay Code: SC1+D, Dose Response: With dose response, Evaluation Type: Evaluation A (Pre-1980)): active; positive
- mutagenic call (Species/Cell Type: Mammalian germ cells, Sex: Male, Assay Type: Chromosome aberrations in vivo, Assay Code: CY9T, Evaluation Type: Evaluation A (Pre-1980)): no conclusion
- mutagenic call (Species/Cell Type: Mammalian polychromatic erythrocytes, Assay Type: Micronucleus test, chromosome aberrations, Assay Code: MNT+, Evaluation Type: Evaluation A (Pre-1980)): active; positive
- mutagenic call (Species/Cell Type: Mouse germ cells, Sex: Male, Assay Type: Unscheduled DNA synthesis (UDS) in vivo, DNA effects, Assay Code: UDT+, Evaluation Type: Evaluation A (Pre-1980)): active; positive
- mutagenic call (Species/Cell Type: Mouse lymphoma (L5178Y) cells, Assay Type: Forward gene mutation at the thymidine kinase (TK) locus, chromosome aberrations, Assay Code: L51+, Evaluation Type: Evaluation A (Pre-1980)): active; positive
- mutagenic call (Species/Cell Type: Mouse, Sex: Female, Assay Type: Spot test, gene mutation, Assay Code: MST+, Evaluation Type: Evaluation A (Pre-1980)): active; positive
- mutagenic call (Species/Cell Type: Mouse, Sex: Male, Assay Type: Heritable translocation test, chromosome aberrations, Assay Code: HTT+D, Dose Response: With dose response, Evaluation Type: Evaluation A (Pre-1980)): active; positive
- mutagenic call (Species/Cell Type: Mouse, Sex: Male, Assay Type: Specific locus test, gene mutation, Assay Code: SLT+, Evaluation Type: Evaluation A (Pre-1980)): active; positive
- mutagenic call (Species/Cell Type: Mouse, Sex: Male, Assay Type: Sperm morphology, Assay Code: SPI+, Evaluation Type: Evaluation A (Pre-1980)): active; positive
- mutagenic call (Species/Cell Type: Neurospora crassa, Assay Type: Aneuploidy, chromosome aberrations, Assay Code: NEN-, Evaluation Type: Evaluation A (Pre-1980)): inactive; negative
- mutagenic call (Species/Cell Type: Neurospora crassa, Assay Type: Forward gene mutation, Assay Code: NEF+, Evaluation Type: Evaluation A (Pre-1980)): active; positive
- mutagenic call (Species/Cell Type: Neurospora crassa, Assay Type: Reverse gene mutation, Assay Code: NER+, Evaluation Type: Evaluation A (Pre-1980)): active; positive
- mutagenic call (Species/Cell Type: Nonhuman bone marrow, Assay Type: Chromosome aberrations, in vivo, Assay Code: CY#+, Evaluation Type: Evaluation A (Pre-1980)): active; positive
- call (Species/Cell Type: Nonhuman, Assay Code: CCG+, Evaluation Type: Evaluation A (Pre-1980)): active; positive
- mutagenic call (Species/Cell Type: Nonhuman, Assay Type: Sister-chromatid exchange (SCE) in vitro, Assay Code: SC2+D, Dose Response: With dose response, Evaluation Type: Evaluation A (Pre-1980)): active; positive
- mutagenic call (Species/Cell Type: Nonhuman, Assay Type: Sister-chromatid exchange (SCE) in vivo, Assay Code: SC3+D, Dose Response: With dose response, Evaluation Type: Evaluation A (Pre-1980)): active; positive
- mutagenic call (Species/Cell Type: Plant, Assay Type: Micronucleus test, chromosome aberrations, Assay Code: MNP-, Evaluation Type: Evaluation A (Pre-1980)): inactive; negative
- mutagenic call (Species/Cell Type: Rodents, Sex: Male, Assay Type: Dominant lethal test, Assay Code: DLT+D, Dose Response: With dose response, Evaluation Type: Evaluation A (Pre-1980)): active; positive
- mutagenic call (Species/Cell Type: Saccharomyces cerevisiae, Assay Type: Aneuploidy, chromosome aberrations, Assay Code: YEN+, Evaluation Type: Evaluation A (Pre-1980)): active; positive
- mutagenic call (Species/Cell Type: Saccharomyces cerevisiae, Assay Type: Forward gene mutation, Assay Code: YEF+, Evaluation Type: Evaluation A (Pre-1980)): active; positive
- mutagenic call (Species/Cell Type: Saccharomyces cerevisiae, Assay Type: Mitotic recombination or gene conversion, Assay Code: YEC+, Evaluation Type: Evaluation A (Pre-1980)): active; positive
- mutagenic call (Species/Cell Type: Saccharomyces cerevisiae, Assay Type: Mitotic recombination or gene conversion, Assay Code: YEH+, Evaluation Type: Evaluation A (Pre-1980)): active; positive
- mutagenic call (Species/Cell Type: Saccharomyces cerevisiae, Assay Type: Reverse gene mutation, Assay Code: YER+, Evaluation Type: Evaluation A (Pre-1980)): active; positive
- mutagenic call [1]: active; positive
- mutagenic call (Species/Cell Type: Salmonella typhimurium, Escherichia coli, Serratia marcesens, Neurospora crassa, Saccharomyces cerevisiae, Chinese hamst, Assay Type: Forward and reverse gene mutation, lethal mutation, mitotic recombination and gene conversion, DNA effects, host-mediate, Assay Code: HM8+, Evaluation Type: Evaluation A (Pre-1980)): active; positive
- mutagenic call (Species/Cell Type: Schizosaccharomyces pombe, Assay Type: Forward gene mutation, Assay Code: YEY+, Evaluation Type: Evaluation A (Pre-1980)): active; positive
- mutagenic call (Species/Cell Type: Schizosaccharomyces pombe, Assay Type: Reverse gene mutation, Assay Code: YEZ+, Evaluation Type: Evaluation A (Pre-1980)): active; positive
- mutagenic call (Species/Cell Type: Syrian hamster embryo (SA7/SHE) cells, Assay Type: Cell transformation, viral enhanced, Assay Code: CT7+, Evaluation Type: Evaluation A (Pre-1980)): active; positive
- mutagenic call (Species/Cell Type: Syrian hamster embryo (SHE) cells, Assay Type: Cell transformation, clonal assay, Assay Code: CTC+, Evaluation Type: Evaluation A (Pre-1980)): active; positive
- mutagenic call (Species/Cell Type: Syrian hamster embryo (SHE) cells, Assay Type: Cell transformation, focus assay, Assay Code: CTF+, Evaluation Type: Evaluation A (Pre-1980)): active; positive
- mutagenic call (Species/Cell Type: Tradescantia species, Assay Type: Chromosome aberrations, Assay Code: TRC+D, Dose Response: With dose response, Evaluation Type: Evaluation A (Pre-1980)): active; positive
- mutagenic call (Species/Cell Type: Tradescantia species, Assay Type: Gene mutation, Assay Code: TRM+D, Dose Response: With dose response, Evaluation Type: Evaluation A (Pre-1980)): active; positive
- mutagenic call (Species/Cell Type: Vicia faba, Assay Type: Chromosome aberrations, Assay Code: VIC+D, Dose Response: With dose response, Evaluation Type: Evaluation A (Pre-1980)): active; positive
- mutagenic call (Species/Cell Type: Zea mays (corn), Assay Type: Gene mutation, Assay Code: ZEM+D, Dose Response: With dose response, Evaluation Type: Evaluation A (Pre-1980)): active; positive

SMILES: Oc1ccc2ccc3c4ccccc4cc4ccc1c2c43
- mutagenic call (Species/Cell Type: Chinese hamster lung (V79) cells, Assay Type: Forward gene mutation at the HPRT or ouabain locus, Assay Code: V79+/-*, Activation: With metabolic activation, Evaluation Type: Evaluation A (Pre-1980)): inactive; positive without activation, negative with activation
- mutagenic call (Species/Cell Type: Escherichia coli polA (W3110 vs P3478), Assay Type: Rec-assay, DNA effects (bacterial DNA repair), Assay Code: RE2+, Evaluation Type: Evaluation A (Pre-1980)): active; positive
- mutagenic call (Species/Cell Type: Escherichia coli polA (W3119 vs P3478), Assay Type: Rec-assay, DNA effects (bacterial DNA repair), Assay Code: RE1T, Evaluation Type: Evaluation A (Pre-1980)): no conclusion
- call (Species/Cell Type: Nonhuman, Assay Code: CCGT, Evaluation Type: Evaluation A (Pre-1980)): no conclusion
- mutagenic call (Species/Cell Type: Saccharomyces cerevisiae, Assay Type: Mitotic recombination or gene conversion, Assay Code: YEH-, Evaluation Type: Evaluation A (Pre-1980)): inactive; negative
- mutagenic call [1]: active; positive
- mutagenic call (Species/Cell Type: Salmonella typhimurium, Assay Type: Forward and reverse gene mutation, host-mediated assay, Assay Code: HMA-, Evaluation Type: Evaluation A (Pre-1980)): inactive; negative

SMILES: Cc1nccc2c1[nH]c1ccccc12
- mutagenic call (Species/Cell Type: Human lymphocytes, Assay Type: Sister-chromatid exchange (SCE) in vitro, Assay Code: SCL+D, Dose Response: With dose response, Evaluation Type: Evaluation B (Post-1980)): active; positive
- mutagenic call (Species/Cell Type: Human, Assay Type: Sister-chromatid exchange (SCE) in vitro, Assay Code: SC1+D, Dose Response: With dose response, Evaluation Type: Evaluation B (Post-1980)): active; positive
- mutagenic call (Species/Cell Type: Salmonella typhimurium (one or more of the five standard strains: TA98, TA100, TA1535, TA1537, and TA1538), Assay Type: Histidine reverse gene mutation, Ames assay, Assay Code: SALT, Evaluation Type: Evaluation A (Pre-1980)): no conclusion
